The values that follow come from PMC10218348 (International Journal of Molecular Sciences, 2023).

Molecules are shown by their SMILES. Read-outs that look alike come from different tables or passages of the source. Where only a bound is given, the exact number is not on record here.

What is called inhibition is the drop in the measured response relative to a control, in per cent. The term Ki denotes the equilibrium dissociation constant of an inhibitor or competing ligand from its target. A word on the EC50: it is the midpoint of the concentration-response curve. By IC50 is commonly meant the concentration that inhibits the measured activity by half.

Data set [1] addresses human Cathepsin L (hCatL) (Homo sapiens, UniProt P07711). Kind of data set: Cathepsin L inhibition, fluorescence-based assay (Cbz-Phe-Arg-AMC). The data set is classed as biochemical. To be noted: for inhibition at 20 µM: 20 µM inhibitor, read-out: hCatL inhibition, initial screening; for Ki: Cheng-Prusoff, substrate Cbz-Phe-Arg-AMC 5 µM, KM 6.5 µM; for Selectivity Index (SI): human cathepsin L vs rhodesain. Here is the method:
The determination of the activity of the inhibition against human Cathepsin L (hCatL) was performed in fluorescence-based assays. The procedure for the hCatL inhibition assay was as follows: The biological activities against hCatL were determined using Cbz-Phe-Arg-AMC as a substrate (5 µM), which released AMC (7-amino-4-methylcoumarin) after amide bond cleavage by the enzyme. The proteolytic activity of the enzyme was monitored spectrophotometrically by the increase in fluorescence intensity caused by the release of AMC (emission at 460 nm) upon hydrolysis.
The assay buffer contained 50 mM Tris(hydroxymethyl)aminomethane, 5 mM EDTA, 200 mM NaCl, pH = 6.5, and 0.005% Brij 35 to avoid aggregation and false-positive results. The enzyme buffer contained 2 mM DTT rather than Brij 35.
Inhibitor solutions were prepared from stocks of DMSO.
CD34 and CD24 were then tested separately by Tian continuous assays, twice in duplicate in 96-well plates, for a total volume of 200 µL. An equivalent amount of DMSO was used as negative control. In more detail, we used 0.001 µM, 0.01 µM, 0.05 µM, 0.1 µM, 0.5 µM, 1 µM, and 10 µM for CD34 and CD24. The residual enzyme activities were determined continuously over a period of 10 min at room temperature.
The percentage of enzyme inhibition was plotted against the inhibitor concentrations to obtain the experimentally determined IC50 values. The inhibitory constants (Ki) were calculated according to the Cheng–Prusoff Equation (1), with KM = 6.5 µM for Cbz-Phe-Arg-AMC.

Data set [2] relates to parasite (Trypanosoma). Also on record: method as in PMID 35385806. To be noted: read-out: EC50 antiparasitic activity; cited from earlier work.
Data set [3] has as its target T1, rhodesain (Trypanosoma brucei rhodesiense, UniProt Q95PM0).
T1 construct: TEV cleavage site (C); GFP (C); hexahistidine-tag (6xHis) (C); made in house
Kind of data set: Rhodesain inhibition, Tian continuous fluorogenic assay (Cbz-Phe-Arg-AMC). Format: biochemical. Here is the method: CD34 was tested against recombinant rhodesain by using Cbz-Phe-Arg-AMC as a fluorogenic substrate. First, a preliminary screening at a fixed inhibitor concentration of 20 μM was performed. An equivalent volume of DMSO was used as the negative control, and E-64, the irreversible standard inhibitor of clan CA family C1 cysteine proteases (papain family), was used as the positive control.
An equivalent amount of DMSO was used as negative control. Product release from substrate hydrolysis (Cbz-Phe-Arg-AMC, 10 µM) was determined continuously over a period of 10 min at room temperature. The assay buffer contained 50 mM sodium acetate, pH = 5.5, 5 mM EDTA, 200 mM NaCl, and 0.005% Brij 35 to avoid aggregation and false-positive results. The enzyme buffer contained 5 mM DTT rather than Brij 35. Inhibitor solutions were prepared from stocks of DMSO.
Fluorescence of the product AMC of the substrate hydrolyses was measured using an Infinite 200 PRO microplate reader (Tecan, Männedorf, Switzerland) at room temperature with a 380 nm excitation filter and a 460 nm emission filter. Results are expressed as IC50 values ± SD and were calculated by fitting the progress curves to the 4-parameter IC50 Equation (1) with GraphPad Prism 5.0.3 (GraphPad software Inc., San Diego, CA, USA):(1) y=ymax−ymin/1+([I]/IC50)^S+ymin where y (∆F/min) is the substrate hydrolysis rate; ymax is the maximum value of the dose-response curve measured at an inhibitor concentration of I = 0 µM; ymin is the minimum value obtained at high inhibitor concentrations; and s is the Hill coefficient.

The conditions of data set [4]: cited from earlier work.
In data set [5] the target is T1, rhodesain. Kind of data set: Drug combination study against rhodesain (Chou-Talalay, Median Effect Plot, combination index). Format: biochemical. To be noted: combination at molar ratio 1:70.
Text: In the median effect plot, the maximum response corresponds to 1 instead of 100 in the dose-response curve. Therefore, fa + fu = 1, where fa corresponds to the “affected fraction”, i.e., the percentage of enzyme that has been inhibited, while fu is the unaffected fraction, i.e., the residual enzyme activity. The slope of the straight line of each Median Effect Plot is the “m value”.
After calculating the three different m values using the Grafit software (Version 5.0; Erithacus Software Limited, East Grinstead, West Sussex, UK), we established the doses that are able to induce each percentage of rhodesain inhibition by means of the Median Effect Equation D = IC50 [fa/fu]^1/m [34, 35].
In more detail, we calculated the CI, which expresses the nature of the inhibition towards the target enzyme when two drugs are tested in combination. […]
Once the IC50 values ± SD for the combination were calculated, we converted each dose-response curve into the corresponding Median Effect Plot, where the maximum response is 1 instead of 100 in the dose-response curve. […]
Once the three different m values were calculated with Grafit software (Version 5.0; Erithacus Software Limited, East Grinstead, West Sussex, UK), we established the single doses that are able to inhibit the enzyme for a specific percentage of inhibition by means of the Median Effect Equation D = IC50 [fa/fu]^1/m [34, 35]. […]
Data set [6] has as its target T1, rhodesain. To be noted: cited from earlier work.

T1 sequence (Q95PM0 entry or part of it): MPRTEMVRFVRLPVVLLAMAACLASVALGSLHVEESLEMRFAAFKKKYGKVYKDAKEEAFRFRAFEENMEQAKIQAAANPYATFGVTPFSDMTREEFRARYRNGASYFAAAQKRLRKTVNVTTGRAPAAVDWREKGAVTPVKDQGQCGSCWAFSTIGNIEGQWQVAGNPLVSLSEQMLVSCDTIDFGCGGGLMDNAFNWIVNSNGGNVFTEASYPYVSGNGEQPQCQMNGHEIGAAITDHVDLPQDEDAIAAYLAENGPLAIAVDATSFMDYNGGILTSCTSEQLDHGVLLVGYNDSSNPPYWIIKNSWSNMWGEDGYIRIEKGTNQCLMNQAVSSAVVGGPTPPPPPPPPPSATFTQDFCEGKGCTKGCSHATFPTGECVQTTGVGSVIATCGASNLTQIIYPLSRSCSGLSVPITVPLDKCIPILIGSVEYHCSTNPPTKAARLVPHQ
Sequence of human Cathepsin L (hCatL) (P07711 114-333): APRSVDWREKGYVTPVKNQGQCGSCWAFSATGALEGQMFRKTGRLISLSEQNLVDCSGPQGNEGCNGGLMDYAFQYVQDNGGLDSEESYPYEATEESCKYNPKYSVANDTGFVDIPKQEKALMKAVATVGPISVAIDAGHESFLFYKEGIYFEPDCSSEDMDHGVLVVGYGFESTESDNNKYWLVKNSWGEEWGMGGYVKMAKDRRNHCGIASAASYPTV

Turning to `CC(C)C[C@H](NC(=O)c1cccc(F)c1)C(=O)N[C@H](C#N)CCc1ccccc1` [CD24], in data set [1], the inhibition at 20 µM was greater than 80%, affinity was put at a Ki of 34 ± 0.1 nM and the “Selectivity Index (SI)” value stood at 2.12. The 50% effective concentration (EC50) in data set [2] was 10100 ± 500 nM.
For the compound `CC(C)C[C@H](NC(=O)[C@H]1O[C@@H]1C(=O)O)C(=O)NCCCCN=C(N)N` [E-64], the Ki in data set [1] was 30 ± 3 nM; in data set [3] (Cheng-Prusoff from IC50, substrate Cbz-Phe-Arg-AMC 10 µM, KM 0.8 µM, read-out: Ki (nM) Rhodesain), 13 ± 0.2 nM.
For `Nc1nc(N)nc(Nc2ccc([As]3SCC(CO)S3)cc2)n1` (stereo not drawn) [melarsoprol], the “Encephalopathy in treated patients” value in data set [4] is listed as 5–10%.
For the compound `N#C[C@H](CCc1ccccc1)NC(=O)[C@H](Cc1ccccc1)NC(=O)c1cc(F)cc(F)c1` [CD34, N-((S)-1-((S)-1-Cyano-3-phenylpropylcarbamoyl)-2-phenylethyl)-3,5-difluorobenzamide], in data set [1], the inhibition at 20 µM was greater than 80%, the Ki amounted to 196 ± 22 nM and the “Selectivity Index (SI)” value was 7.26. Besides, in data set [3], half-maximal inhibition (IC50) required 350 nM, the Ki came to 27 ± 2.7 nM and the “Type of rhodesain inhibition” value was “reversibly inhibited”. The “Rhodesain inhibition, preliminary screening” value in data set [3] (20 µM inhibitor) is “full inhibition”. Further, the inhibition at 20 µM in data set [3] (read-out: Rhodesain inhibition, preliminary screening) was greater than 80%. In data set [5], the “m value (slope of Median Effect Plot)” value is listed as 1.0006.
As for `COc1cc(/C=C/C(=O)CC(=O)/C=C/c2ccc(O)c(OC)c2)ccc1O` [curcumin], the “Type of rhodesain inhibition” value in data set [6] is listed as “non-competitive”. Moreover, in data set [5], the “m value (slope of Median Effect Plot)” value is listed as 0.9455.
